Measurements: PMC8333062, “Chemical tools for epichaperome-mediated interactome dysfunctions of the central nervous system” (Nature Communications, 2021)

Assays:
[1] = target: T1, CYP1A2 (Homo sapiens, UniProt P05177); experiment: Cytochrome P450 profiling, furafylline; type: in vitro ADME; settings: for % PU-HZ151 remaining: Furafylline
T1 sequence (P05177 1-516): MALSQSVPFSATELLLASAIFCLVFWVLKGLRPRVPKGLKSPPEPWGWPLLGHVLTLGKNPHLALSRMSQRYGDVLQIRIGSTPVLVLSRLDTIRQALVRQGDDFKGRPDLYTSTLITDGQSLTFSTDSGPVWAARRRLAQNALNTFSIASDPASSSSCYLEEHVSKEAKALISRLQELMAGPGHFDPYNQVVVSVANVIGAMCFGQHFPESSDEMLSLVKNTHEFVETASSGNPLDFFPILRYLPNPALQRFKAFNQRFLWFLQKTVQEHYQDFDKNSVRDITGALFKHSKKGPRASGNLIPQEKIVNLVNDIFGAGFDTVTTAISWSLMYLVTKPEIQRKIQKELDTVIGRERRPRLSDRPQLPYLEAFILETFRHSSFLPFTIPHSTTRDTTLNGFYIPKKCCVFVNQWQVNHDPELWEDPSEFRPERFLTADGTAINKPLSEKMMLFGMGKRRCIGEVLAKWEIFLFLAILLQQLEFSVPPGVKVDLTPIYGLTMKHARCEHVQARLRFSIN
Description: (§1) To identify cytochrome P450 enzymes responsible for PU-HZ151’s metabolism in human liver microsomes the following procedure was followed. Phosphate buffer (100 mM, pH 7.4) was prepared monthly and stored at 4 °C. Frozen stock solutions of human liver microsomes (Life Technologies; Cat# HMMCPL) were used once after thawing and were not refrozen. NADPH stock solution (50 mM) in distilled water was prepared fresh daily. […] The stock solutions of these P450 inhibitors were prepared in DMSO. […] The concentration of the chemical inhibitors used in the assay were furafylline (10 μM), tranylcypromine (2 μM), ketoconazole (1 μM), troleandomycin (20 μM), orphenadrine (50 μM), montelukast (3 μM), sulfaphenazole (10 μM), benzylnirvanol (1 μM), quinidine (1 μM), and 1-aminobenzotriazole (1 mM) for all the P450 enzymes. Timing of the reactions was started following the addition of NADPH/magnesium chloride mix and PU-HZ151. Time-dependent chemical inhibitors (furafylline, troleandomycin, orphenadrine, and 1-aminobenzotriazole) were preincubated with human microsomes in the presence of NADPH and magnesium chloride for 15 min before the addition of PU-HZ151 and timing of reactions was started after addition of PU-HZ151. […] Following brief vortexing and centrifugation, a 200 µL aliquot of the supernatant was transferred to a tube, and 10 µL of haloperidol (1 µg mL^−1) as internal standard was added. Following brief vortexing and centrifugation, 50 µL of supernatant was added to a 96-well plate for subsequent LC-MS/MS analysis. PU-HZ151 was similarly tested as above in the absence of CYP inhibitors for comparative purposes. All samples were assayed in duplicate. […] This was similarly performed for incubations of PU-HZ151 performed in the absence of CYP inhibitor.

[2] = target: T2, 97 kinases (Homo sapiens, UniProt O14965); experiment: scanEDGE off-target screen; type: binding; settings: read-out: %Ctrl AURKA
T2 construct: purchased Ambit Biosciences (scanEDGE / KINOMEscan) scanEDGE 97 kinase panel; host or cells: T7 phage in E. coli BL21-derived host; remaining kinases in HEK-293 cells

[3] = target: T3, 97 kinases (Homo sapiens, UniProt Q9Y463); experiment: scanEDGE off-target screen; type: binding; settings: read-out: %Ctrl DYRK1B
T3 construct: purchased Ambit Biosciences (scanEDGE / KINOMEscan) scanEDGE 97 kinase panel; host or cells: T7 phage in E. coli BL21-derived host; remaining kinases in HEK-293 cells

[4] = target: T4, 97 kinases (Homo sapiens, UniProt Q16539); experiment: scanEDGE off-target screen; type: binding; settings: read-out: %Ctrl p38-alpha
T4 construct: purchased Ambit Biosciences (scanEDGE / KINOMEscan) scanEDGE 97 kinase panel; host or cells: T7 phage in E. coli BL21-derived host; remaining kinases in HEK-293 cells

[5] = target: T5, 97 kinases (Homo sapiens, UniProt P48736); experiment: scanEDGE off-target screen; type: binding; settings: read-out: %Ctrl PIK3CG
T5 construct: purchased Ambit Biosciences (scanEDGE / KINOMEscan) scanEDGE 97 kinase panel; host or cells: T7 phage in E. coli BL21-derived host; remaining kinases in HEK-293 cells

[6] = target: T6, 97 kinases (Homo sapiens, UniProt P53350); experiment: scanEDGE off-target screen; type: binding; settings: read-out: %Ctrl PLK1
T6 construct: purchased Ambit Biosciences (scanEDGE / KINOMEscan) scanEDGE 97 kinase panel; host or cells: T7 phage in E. coli BL21-derived host; remaining kinases in HEK-293 cells

[7] = target: T7, 97 kinases (Homo sapiens, UniProt Q86UX6); experiment: scanEDGE off-target screen; type: binding; settings: read-out: %Ctrl YANK3
T7 construct: purchased Ambit Biosciences (scanEDGE / KINOMEscan) scanEDGE 97 kinase panel; host or cells: T7 phage in E. coli BL21-derived host; remaining kinases in HEK-293 cells

[8] = target: T8, 97 kinases (Homo sapiens, UniProt P15056, V600E); experiment: scanEDGE off-target screen; type: binding; settings: read-out: %Ctrl BRAF(V600E)
T8 construct: purchased Ambit Biosciences (scanEDGE / KINOMEscan) scanEDGE 97 kinase panel; host or cells: T7 phage in E. coli BL21-derived host; remaining kinases in HEK-293 cells

[9] = target: T9, 97 kinases (Homo sapiens, UniProt P50750); experiment: scanEDGE off-target screen; type: binding; settings: read-out: %Ctrl CDK9
T9 construct: purchased Ambit Biosciences (scanEDGE / KINOMEscan) scanEDGE 97 kinase panel; host or cells: T7 phage in E. coli BL21-derived host; remaining kinases in HEK-293 cells

[10] = target: T10, 97 kinases (Homo sapiens, UniProt P07949); experiment: scanEDGE off-target screen; type: binding; settings: read-out: %Ctrl RET
T10 construct: purchased Ambit Biosciences (scanEDGE / KINOMEscan) scanEDGE 97 kinase panel; host or cells: T7 phage in E. coli BL21-derived host; remaining kinases in HEK-293 cells

[11] = target: T11, 97 kinases (Homo sapiens, UniProt P80192); experiment: scanEDGE off-target screen; type: binding; settings: read-out: %Ctrl MLK1
T11 construct: purchased Ambit Biosciences (scanEDGE / KINOMEscan) scanEDGE 97 kinase panel; host or cells: T7 phage in E. coli BL21-derived host; remaining kinases in HEK-293 cells

[12] = target: T12, 97 kinases (Homo sapiens, UniProt P52333); experiment: scanEDGE off-target screen; type: binding; settings: read-out: %Ctrl JAK3(JH1domain-catalytic)
T12 construct: purchased Ambit Biosciences (scanEDGE / KINOMEscan) scanEDGE 97 kinase panel; host or cells: T7 phage in E. coli BL21-derived host; remaining kinases in HEK-293 cells

[13] = target: T13, 97 kinases (Homo sapiens, UniProt P36888); experiment: scanEDGE off-target screen; type: binding; settings: read-out: %Ctrl FLT3
T13 construct: purchased Ambit Biosciences (scanEDGE / KINOMEscan) scanEDGE 97 kinase panel; host or cells: T7 phage in E. coli BL21-derived host; remaining kinases in HEK-293 cells

[14] = target: T14, 97 kinases (Homo sapiens, UniProt P09619); experiment: scanEDGE off-target screen; type: binding; settings: read-out: %Ctrl PDGFRB
T14 construct: purchased Ambit Biosciences (scanEDGE / KINOMEscan) scanEDGE 97 kinase panel; host or cells: T7 phage in E. coli BL21-derived host; remaining kinases in HEK-293 cells

[15] = target: T15, 97 kinases (Homo sapiens, UniProt Q02156); experiment: scanEDGE off-target screen; type: binding; settings: read-out: %Ctrl PRKCE
T15 construct: purchased Ambit Biosciences (scanEDGE / KINOMEscan) scanEDGE 97 kinase panel; host or cells: T7 phage in E. coli BL21-derived host; remaining kinases in HEK-293 cells

[16] = target: T16, 97 kinases (Homo sapiens, UniProt Q13177); experiment: scanEDGE off-target screen; type: binding; settings: read-out: %Ctrl PAK2
T16 construct: purchased Ambit Biosciences (scanEDGE / KINOMEscan) scanEDGE 97 kinase panel; host or cells: T7 phage in E. coli BL21-derived host; remaining kinases in HEK-293 cells

[17] = target: T17, 97 kinases (Homo sapiens, UniProt P00519, T315I); experiment: scanEDGE off-target screen; type: binding; settings: read-out: %Ctrl ABL1(T315I)-phosphorylated
T17 construct: purchased Ambit Biosciences (scanEDGE / KINOMEscan) scanEDGE 97 kinase panel; host or cells: T7 phage in E. coli BL21-derived host; remaining kinases in HEK-293 cells

[18] = target: T18, 97 kinases (Homo sapiens, UniProt O15111); experiment: scanEDGE off-target screen; type: binding; settings: read-out: %Ctrl IKK-alpha
T18 construct: purchased Ambit Biosciences (scanEDGE / KINOMEscan) scanEDGE 97 kinase panel; host or cells: T7 phage in E. coli BL21-derived host; remaining kinases in HEK-293 cells

[19] = target: T19, 97 kinases (Homo sapiens, UniProt P36896); experiment: scanEDGE off-target screen; type: binding; settings: read-out: %Ctrl ACVR1B
T19 construct: purchased Ambit Biosciences (scanEDGE / KINOMEscan) scanEDGE 97 kinase panel; host or cells: T7 phage in E. coli BL21-derived host; remaining kinases in HEK-293 cells

[20] = target: T20, 97 kinases (Homo sapiens, UniProt P45983); experiment: scanEDGE off-target screen; type: binding; settings: read-out: %Ctrl JNK1
T20 construct: purchased Ambit Biosciences (scanEDGE / KINOMEscan) scanEDGE 97 kinase panel; host or cells: T7 phage in E. coli BL21-derived host; remaining kinases in HEK-293 cells

[21] = target: T21, CYP2C9 (Homo sapiens, UniProt P11712); experiment: Cytochrome P450 profiling, sulfaphenazole; type: in vitro ADME; settings: for % PU-HZ151 remaining: Sulfaphenazole
T21 construct: PU-HZ151 (1 µM) was incubated with human liver microsomes (0.5 mg protein mL^−1); tissue Life Technologies HMMCPL; host or cells: human liver microsomes
Description: as §1

T21 sequence (P11712 whole entry): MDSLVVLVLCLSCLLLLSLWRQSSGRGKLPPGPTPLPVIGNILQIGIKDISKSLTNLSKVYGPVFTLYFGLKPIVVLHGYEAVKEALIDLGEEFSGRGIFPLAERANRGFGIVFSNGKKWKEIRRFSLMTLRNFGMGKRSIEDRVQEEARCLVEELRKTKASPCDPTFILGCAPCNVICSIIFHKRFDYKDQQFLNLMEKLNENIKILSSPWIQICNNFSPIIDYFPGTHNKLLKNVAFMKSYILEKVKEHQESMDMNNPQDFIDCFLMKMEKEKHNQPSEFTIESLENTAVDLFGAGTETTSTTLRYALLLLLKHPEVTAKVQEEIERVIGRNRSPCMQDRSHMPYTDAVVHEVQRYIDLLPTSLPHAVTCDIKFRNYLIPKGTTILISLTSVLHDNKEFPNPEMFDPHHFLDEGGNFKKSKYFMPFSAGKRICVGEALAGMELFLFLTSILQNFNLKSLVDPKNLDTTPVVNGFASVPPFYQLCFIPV
T2 sequence (O14965 whole entry): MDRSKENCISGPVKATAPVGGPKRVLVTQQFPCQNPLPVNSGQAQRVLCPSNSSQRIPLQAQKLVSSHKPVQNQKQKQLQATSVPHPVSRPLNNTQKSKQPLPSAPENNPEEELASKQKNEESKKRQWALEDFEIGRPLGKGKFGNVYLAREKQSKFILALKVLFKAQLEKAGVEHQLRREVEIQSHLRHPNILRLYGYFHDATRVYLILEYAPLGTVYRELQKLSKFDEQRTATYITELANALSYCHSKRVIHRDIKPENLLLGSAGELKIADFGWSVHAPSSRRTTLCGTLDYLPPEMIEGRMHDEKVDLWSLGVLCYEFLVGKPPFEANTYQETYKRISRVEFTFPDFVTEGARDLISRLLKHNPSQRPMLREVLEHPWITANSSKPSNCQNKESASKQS
T14 sequence (P09619 33-1106): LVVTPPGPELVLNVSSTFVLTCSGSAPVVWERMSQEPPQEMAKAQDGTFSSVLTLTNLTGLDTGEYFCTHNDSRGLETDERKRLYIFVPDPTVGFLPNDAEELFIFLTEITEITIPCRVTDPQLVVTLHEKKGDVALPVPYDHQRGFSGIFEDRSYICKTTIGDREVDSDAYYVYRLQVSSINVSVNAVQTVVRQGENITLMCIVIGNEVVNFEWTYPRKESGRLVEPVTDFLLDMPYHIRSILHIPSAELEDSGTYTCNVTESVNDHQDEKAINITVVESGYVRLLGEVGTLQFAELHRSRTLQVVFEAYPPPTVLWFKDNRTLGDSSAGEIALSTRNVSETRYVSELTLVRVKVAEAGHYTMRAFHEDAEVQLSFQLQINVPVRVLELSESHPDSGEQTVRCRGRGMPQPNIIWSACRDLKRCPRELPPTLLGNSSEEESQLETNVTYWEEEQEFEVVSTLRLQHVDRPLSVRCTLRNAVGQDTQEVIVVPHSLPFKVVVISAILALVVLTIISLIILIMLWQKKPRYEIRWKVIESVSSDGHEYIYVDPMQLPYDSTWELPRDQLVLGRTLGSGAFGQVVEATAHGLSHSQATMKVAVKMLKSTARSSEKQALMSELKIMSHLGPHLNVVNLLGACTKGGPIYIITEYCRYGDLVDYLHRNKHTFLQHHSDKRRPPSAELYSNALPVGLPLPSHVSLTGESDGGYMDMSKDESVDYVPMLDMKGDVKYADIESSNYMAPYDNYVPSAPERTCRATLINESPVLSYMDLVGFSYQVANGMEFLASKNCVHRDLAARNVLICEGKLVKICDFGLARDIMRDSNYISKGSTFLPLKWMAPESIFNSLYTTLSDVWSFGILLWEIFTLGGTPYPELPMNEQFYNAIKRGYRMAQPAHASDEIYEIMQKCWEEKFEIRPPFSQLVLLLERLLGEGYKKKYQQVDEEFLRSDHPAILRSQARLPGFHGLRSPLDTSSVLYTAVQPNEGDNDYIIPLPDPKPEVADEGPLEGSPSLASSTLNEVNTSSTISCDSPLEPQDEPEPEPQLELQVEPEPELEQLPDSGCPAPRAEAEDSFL
T19 sequence (P36896 24-505): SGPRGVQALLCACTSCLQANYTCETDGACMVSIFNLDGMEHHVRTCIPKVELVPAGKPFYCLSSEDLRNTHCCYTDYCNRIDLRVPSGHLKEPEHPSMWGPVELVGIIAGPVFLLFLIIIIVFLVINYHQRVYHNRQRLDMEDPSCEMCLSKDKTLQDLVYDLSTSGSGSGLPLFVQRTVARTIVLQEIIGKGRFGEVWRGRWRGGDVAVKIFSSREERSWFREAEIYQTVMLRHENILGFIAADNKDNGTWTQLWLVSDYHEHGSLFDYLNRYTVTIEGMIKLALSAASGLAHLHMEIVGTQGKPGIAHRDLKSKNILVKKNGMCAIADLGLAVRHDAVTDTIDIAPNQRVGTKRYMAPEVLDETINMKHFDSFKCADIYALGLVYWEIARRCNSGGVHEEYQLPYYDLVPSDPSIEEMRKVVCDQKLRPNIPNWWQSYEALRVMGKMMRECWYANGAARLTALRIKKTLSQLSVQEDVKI
T5 sequence (P48736 whole entry): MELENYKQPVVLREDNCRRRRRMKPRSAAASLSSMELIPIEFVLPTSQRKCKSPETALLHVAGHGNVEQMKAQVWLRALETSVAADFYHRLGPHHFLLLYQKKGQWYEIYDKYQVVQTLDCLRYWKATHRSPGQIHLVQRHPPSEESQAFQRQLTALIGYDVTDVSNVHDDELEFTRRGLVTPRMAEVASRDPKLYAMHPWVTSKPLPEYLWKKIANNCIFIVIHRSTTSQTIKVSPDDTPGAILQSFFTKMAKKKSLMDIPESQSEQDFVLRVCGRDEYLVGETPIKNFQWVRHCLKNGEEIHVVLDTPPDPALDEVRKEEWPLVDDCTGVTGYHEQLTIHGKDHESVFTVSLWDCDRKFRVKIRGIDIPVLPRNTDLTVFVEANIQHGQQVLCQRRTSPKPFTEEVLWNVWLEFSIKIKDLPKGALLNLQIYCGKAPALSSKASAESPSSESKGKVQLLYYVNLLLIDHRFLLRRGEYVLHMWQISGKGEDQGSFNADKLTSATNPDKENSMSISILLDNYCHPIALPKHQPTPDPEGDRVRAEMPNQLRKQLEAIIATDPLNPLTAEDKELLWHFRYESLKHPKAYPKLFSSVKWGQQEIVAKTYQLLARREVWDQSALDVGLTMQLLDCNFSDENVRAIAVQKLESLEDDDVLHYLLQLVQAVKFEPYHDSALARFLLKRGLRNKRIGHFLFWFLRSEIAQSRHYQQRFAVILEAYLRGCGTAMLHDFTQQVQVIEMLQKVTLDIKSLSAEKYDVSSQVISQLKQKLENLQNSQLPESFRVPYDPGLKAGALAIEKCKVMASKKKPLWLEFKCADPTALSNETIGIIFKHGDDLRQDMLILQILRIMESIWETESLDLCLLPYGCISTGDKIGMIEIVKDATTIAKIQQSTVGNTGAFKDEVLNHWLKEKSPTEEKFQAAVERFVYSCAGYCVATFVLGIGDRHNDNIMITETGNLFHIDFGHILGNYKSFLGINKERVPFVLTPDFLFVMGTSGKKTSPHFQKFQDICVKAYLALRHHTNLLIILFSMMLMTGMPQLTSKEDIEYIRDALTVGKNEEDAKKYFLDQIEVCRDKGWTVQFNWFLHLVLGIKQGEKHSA
T9 sequence (P50750 whole entry): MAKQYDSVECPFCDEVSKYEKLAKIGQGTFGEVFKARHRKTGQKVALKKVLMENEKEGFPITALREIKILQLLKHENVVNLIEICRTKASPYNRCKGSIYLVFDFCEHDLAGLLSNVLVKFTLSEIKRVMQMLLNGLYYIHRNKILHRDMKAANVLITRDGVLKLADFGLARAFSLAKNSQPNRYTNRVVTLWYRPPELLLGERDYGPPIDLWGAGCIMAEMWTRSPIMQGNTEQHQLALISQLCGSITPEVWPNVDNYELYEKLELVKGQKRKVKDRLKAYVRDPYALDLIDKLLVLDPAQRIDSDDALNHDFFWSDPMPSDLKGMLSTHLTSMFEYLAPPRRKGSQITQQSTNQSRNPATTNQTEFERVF
T10 sequence (P07949 29-1114): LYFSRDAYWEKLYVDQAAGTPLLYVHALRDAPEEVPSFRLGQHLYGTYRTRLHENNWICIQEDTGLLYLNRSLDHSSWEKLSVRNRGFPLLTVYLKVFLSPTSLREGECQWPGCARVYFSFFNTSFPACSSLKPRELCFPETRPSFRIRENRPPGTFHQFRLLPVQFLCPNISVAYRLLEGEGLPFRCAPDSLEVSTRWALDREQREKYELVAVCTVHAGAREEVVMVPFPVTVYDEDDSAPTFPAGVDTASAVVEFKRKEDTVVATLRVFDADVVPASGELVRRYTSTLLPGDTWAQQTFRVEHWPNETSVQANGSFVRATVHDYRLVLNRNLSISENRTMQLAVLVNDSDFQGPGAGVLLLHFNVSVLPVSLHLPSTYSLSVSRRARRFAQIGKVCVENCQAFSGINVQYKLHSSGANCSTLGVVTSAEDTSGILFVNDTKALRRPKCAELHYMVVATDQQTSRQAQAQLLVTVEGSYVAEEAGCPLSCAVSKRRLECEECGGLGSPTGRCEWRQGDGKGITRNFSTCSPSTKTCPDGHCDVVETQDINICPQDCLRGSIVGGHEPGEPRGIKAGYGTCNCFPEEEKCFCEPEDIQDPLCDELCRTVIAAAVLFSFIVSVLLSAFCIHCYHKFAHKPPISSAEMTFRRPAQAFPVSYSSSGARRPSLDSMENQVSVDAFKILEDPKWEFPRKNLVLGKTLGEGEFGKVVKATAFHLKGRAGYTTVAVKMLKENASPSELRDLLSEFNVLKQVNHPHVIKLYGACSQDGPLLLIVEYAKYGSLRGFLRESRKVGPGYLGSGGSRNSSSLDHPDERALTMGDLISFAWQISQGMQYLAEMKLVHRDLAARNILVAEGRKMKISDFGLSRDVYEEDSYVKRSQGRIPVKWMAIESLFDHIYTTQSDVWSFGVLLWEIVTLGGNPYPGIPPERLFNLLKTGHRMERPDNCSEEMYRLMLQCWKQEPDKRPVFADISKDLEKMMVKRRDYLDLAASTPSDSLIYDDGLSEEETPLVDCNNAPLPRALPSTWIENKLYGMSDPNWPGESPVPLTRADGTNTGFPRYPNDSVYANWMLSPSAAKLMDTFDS

CC(C)(C)CNCCn1c(Sc2cc3c(cc2I)OCO3)nc2c(N)ncnc21 [Compound 85]
% PU-HZ151 remaining ([1]; 15 min): 65.9%
% PU-HZ151 remaining ([1]; 30 min): 47.3%
% PU-HZ151 remaining ([1]; 60 min): 26.3%
inhibition of PU-HZ151 metabolism ([1]; furafylline): 11%
remaining binding at 10 µM [2]: 96%
remaining binding at 10 µM [3]: 36%
remaining binding at 10 µM [4]: 100%
remaining binding at 10 µM [5]: 94%
remaining binding at 10 µM [6]: 97%
remaining binding at 10 µM [7]: 95%
remaining binding at 10 µM [8]: 97%
remaining binding at 10 µM [9]: 91%
remaining binding at 10 µM [10]: 100%
remaining binding at 10 µM [11]: 100%
remaining binding at 10 µM [12]: 86%
remaining binding at 10 µM [13]: 100%
remaining binding at 10 µM [14]: 98%
remaining binding at 10 µM [15]: 100%
remaining binding at 10 µM [16]: 97%
remaining binding at 10 µM [17]: 96%
remaining binding at 10 µM [18]: 99%
remaining binding at 10 µM [19]: 83%
remaining binding at 10 µM [20]: 96%
% PU-HZ151 remaining ([21]; 15 min): 70.5%
% PU-HZ151 remaining ([21]; 30 min): 54.1%
% PU-HZ151 remaining ([21]; 60 min): 36.5%
inhibition of PU-HZ151 metabolism ([21]; sulfaphenazole): 23%
